Experimental findings from patent US20250042916A1 (ACONCAGUA BIO, INC., priority 2023, published 2025) are described below.

Chain of human calcitonin receptor (CTR) and RAMP3 (AMY3) in COS-7 cells (P30988 25-474): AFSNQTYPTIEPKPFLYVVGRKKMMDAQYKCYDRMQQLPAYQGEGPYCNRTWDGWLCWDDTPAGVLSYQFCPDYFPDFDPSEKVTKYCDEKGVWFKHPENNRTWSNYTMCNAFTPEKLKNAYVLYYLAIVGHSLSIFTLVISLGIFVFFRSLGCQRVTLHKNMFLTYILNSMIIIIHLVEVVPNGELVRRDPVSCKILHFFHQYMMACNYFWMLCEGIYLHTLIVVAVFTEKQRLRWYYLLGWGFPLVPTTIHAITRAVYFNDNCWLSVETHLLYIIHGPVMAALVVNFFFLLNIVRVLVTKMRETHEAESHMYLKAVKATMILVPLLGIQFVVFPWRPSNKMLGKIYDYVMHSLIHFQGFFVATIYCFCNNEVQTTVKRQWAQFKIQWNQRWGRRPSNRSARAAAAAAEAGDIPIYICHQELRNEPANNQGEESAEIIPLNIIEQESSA
Chain of human calcitonin receptor (CTR) and RAMP3 (AMY3) in COS-7 cells (O60896 24-148): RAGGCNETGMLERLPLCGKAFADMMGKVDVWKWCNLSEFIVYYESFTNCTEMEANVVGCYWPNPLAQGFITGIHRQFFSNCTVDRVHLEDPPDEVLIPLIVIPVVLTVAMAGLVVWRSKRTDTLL

The target in the test is human calcitonin receptor (CTR) and RAMP3 (AMY3) in COS-7 cells (Homo sapiens, UniProt O60896+P30988). Kind of test: Amylin Receptor cAMP Assay I. Format: cell-based. The note with it: values marked *: Amylin Receptor cAMP Assay I; COS-7/AMY3 cells; read-out: Amylin Receptor cAMP Stimulation Activity: EC50. An excerpt:
Amylin Receptor cAMP Assay I
AMYRs are heterodimers of the class B calcitonin (CT) G-protein-coupled receptor (CTR) and receptor activity-modifying proteins (RAMPs). All three RAMPs can interact with the CTR and form AMY1, AMY2, AMY3 with RAMP1, RAMP2 and RAMP3, respectively. Like other class B1 GPCRs, the CT receptor family is canonically coupled to Gs-mediated cAMP production, and measurement of cAMP accumulation has been the primary assay used to determine peptide selectivity and potency.
To optimize functional activity directed toward Gas coupling, COS-7 cells were stably transfected with human calcitonin receptor (CTR) and RAMP3, simultaneously. 100× concentration of compound working solutions were prepared (Agilent Technologies Bravo) with 4-fold serial dilution in 384-well Echo LDV plate (Labcyte, Cat #LP-0200). 100 nL/well 100× concentration of compound working solutions were moved to 384-well white low volume plate (Greiner, Cat #784075) using Labcyte ECHO550. 1×10^5 cells/mL COS-7/CTR or COS-7/AMY3 (HD Biosciences) cell suspensions prepared with assay buffer [DPBS containing 0.5 mM IBMX (Sigma, Cat #15879) and 0.1% BSA (GENVIEW, Cat #FA016-100 g)], 10 μL cell suspensions were added to each well of previous generated assay plate which already contains 100 nL compound at 100× concentration using ThermoFisher Multidrop Combi (1000 cells/well). Seal the plate and incubate at 37° C. with 5% CO2 for 30 min.
After incubation, the cAMP assay signal was generated using cAMP Hi-range Kit (Cisbio). 5 μL cAMP-d2 working solution was added to each well, followed by 5 μL Anti-cAMP antibody-cryptate working solution which was added to each well using ThermoFisher Multidrop Combi. The samples were then incubated at room temperature for 1 hour protected from light. the fluorescence was read at 665 and 615 nm with Reader PerkinElmer EnVision.
Regarding `Cc1nnc(-c2c(CCc3ccc(F)cc3)nc(CC(C)C)c(C(N)=O)c2-c2ccc(C(=O)NCc3ccc(F)c(F)c3)cc2)o1` [Compound 126, 4-(p-{[(3,4-difluorophenyl)methyl]carbamoyl}phenyl)-6-[2-(p-fluorophenyl)ethyl]-2-isobutyl-5-(5-methyl-1,3,4-oxadiazol-2-yl)nicotinamide], the concentration giving a half-maximal response (EC50) came out at 162 nM.
The value for `Cc1nnc(-c2c(CCc3ccc(F)cc3)nc(CC(C)C)c(C(N)=O)c2-c2cc3ccccc3s2)o1` [Compound 127, 4-(1-benzothiophen-2-yl)-6-[2-(p-fluorophenyl)ethyl]-2-isobutyl-5-(5-methyl-1,3,4-oxadiazol-2-yl)nicotinamide] was 495 nM.
Take `Cc1nnc(-c2c(CCc3ccc(F)cc3)nc(CC(C)C)c(C(N)=O)c2-c2ccc(C(=O)NCc3ccc(F)c(F)c3)o2)o1` [Compound 128, N-(3,4-difluorophenyl)methyl-5-{5-carbamoyl-2-[2-(p-fluorophenyl)ethyl]-6-isobutyl-3-(5-methyl-1,3,4-oxadiazol-2-yl)-4-pyridyl}-2-furamide]: the EC50 was found to be 162 nM.
On to `Cc1nnc(-c2c(CCc3ccc(F)cc3)nc(CC(C)C)c(C(N)=O)c2-c2cc3cccc(Br)c3s2)o1` [Compound 129, 4-(7-bromo-1-benzothiophen-2-yl)-6-[2-(p-fluorophenyl)ethyl]-2-isobutyl-5-(5-methyl-1,3,4-oxadiazol-2-yl)nicotinamide], for which the EC50 was 940 nM.
With `Cc1nnc(-c2c(CCc3ccc(F)cc3)nc(CC(C)C)c(C(N)=O)c2-c2cc3ccnc(NCc4ccc(F)c(F)c4)c3o2)o1` [Compound 130, 4-(7-{[(3,4-difluorophenyl)methyl]amino}-1-oxa-6-aza-2-indenyl)-6-[2-(p-fluorophenyl)ethyl]-2-isobutyl-5-(5-methyl-1,3,4-oxadiazol-2-yl)nicotinamide] the figure was 49 nM; with `Cc1nnc(-c2c(CCc3ccc(F)cc3)nc(CC(C)C)c(C(N)=O)c2-c2cc3ncnc(NCc4ccc(F)c(F)c4)c3s2)o1` [Compound 132, 4-(4-((3,4-difluorobenzyl)amino)thieno[3,2-d]pyrimidin-6-yl)-6-(4-fluorophenethyl)-2-isobutyl-5-(5-methyl-1,3,4-oxadiazol-2-yl)nicotinamide], 2.5 nM.
With `Cc1nnc(-c2c(CCc3ccc(F)cc3)nc(CC(C)C)c(C(N)=O)c2-c2cc3c(NCc4ccc(F)c(F)c4)nccc3s2)o1` [Compound 133, 4-(4-((3,4-difluorobenzyl)amino)thieno[3,2-c]pyridin-2-yl)-6-(4-fluorophenethyl)-2-isobutyl-5-(5-methyl-1,3,4-oxadiazol-2-yl)nicotinamide] the figure was 6.9 nM.
With `COCC1CN(c2nccc3cc(-c4c(C(N)=O)c(CC(C)C)nc(CCc5ccc(F)cc5)c4-c4nnc(C)o4)sc23)C1` [Compound 134, 6-(4-fluorophenethyl)-2-isobutyl-4-(7-(3-(methoxymethyl)azetidin-1-yl)thieno[2,3-c]pyridin-2-yl)-5-(5-methyl-1,3,4-oxadiazol-2-yl)nicotinamide] the figure was 1160 nM; with `Cc1nnc(-c2c(CCc3ccc(F)cc3)nc(CC(C)C)c(C(N)=O)c2-c2cc3cccc(NCc4ccc(F)c(F)c4)c3s2)o1` [Compound 136, 4-(7-((3,4-difluorobenzyl)amino)benzo[b]thiophen-2-yl)-6-(4-fluorophenethyl)-2-isobutyl-5-(5-methyl-1,3,4-oxadiazol-2-yl)nicotinamide], 6.7 nM.
For the compound `Cc1nnc(-c2c(CCc3ccc(F)cc3)nc(CC(C)C)c(C(N)=O)c2-c2cc3cccc(N[C@@H]4CCc5ccccc54)c3s2)o1` [Compound 137, (R)-4-(7-((2,3-dihydro-1H-inden-1-yl)amino)benzo[b]thiophen-2-yl)-6-(4-fluorophenethyl)-2-isobutyl-5-(5-methyl-1,3,4-oxadiazol-2-yl)nicotinamide], the half-maximal effective concentration (EC50) stood at 1.3 nM.
Consider `Cc1nnc(-c2c(CCc3ccc(F)cc3)nc(CC(C)C)c(C(N)=O)c2-c2cc3cccc(C#N)c3s2)o1` [Compound 138, 4-(7-cyano-1-benzothiophen-2-yl)-6-[2-(p-fluorophenyl)ethyl]-2-isobutyl-5-(5-methyl-1,3,4-oxadiazol-2-yl)nicotinamide], for which the EC50 came to 2260 nM.
For `Cc1nnc(-c2c(CCc3ccc(F)cc3)nc(CC(C)C)c(C(N)=O)c2-c2cc3c(N)cccc3s2)o1` [Compound 139, 4-(4-aminobenzo[b]thiophen-2-yl)-6-(4-fluorophenethyl)-2-isobutyl-5-(5-methyl-1,3,4-oxadiazol-2-yl)nicotinamide], the EC50 was determined as 9930 nM.
Regarding `Cc1nnc(-c2c(CCc3ccc(F)cc3)nc(CC(C)C)c(C(N)=O)c2-c2ccc(CN[C@@H]3CCc4ccccc43)s2)o1` [Compound 140, 4-(5-{[(R)-1-indanylamino]methyl}-2-thienyl)-6-[2-(p-fluorophenyl)ethyl]-2-isobutyl-5-(5-methyl-1,3,4-oxadiazol-2-yl)nicotinamide], the EC50 stood at 177 nM.
The value for `Cc1nnc(-c2c(CCc3ccc(F)cc3)nc(CC(C)C)c(C(N)=O)c2-c2ccc(CNC(=O)c3ccc(F)c(F)c3)s2)o1` [Compound 141] was 50 nM; that for `Cc1nnc(-c2c(CCc3ccc(F)cc3)nc(CC(C)C)c(C(N)=O)c2-c2ccc3c(c2)CCC3NCc2ccc(F)c(F)c2)o1` (centres unmarked) [Compound 143, 4-(1-{[(3,4-difluorophenyl)methyl]amino}-5-indanyl)-6-[2-(p-fluorophenyl)ethyl]-2-isobutyl-5-(5-methyl-1,3,4-oxadiazol-2-yl)nicotinamide] was 374 nM; that for `Cc1nnc(-c2c(CCc3ccc(F)cc3)nc(CC(C)C)c(C(N)=O)c2CCOC(=O)NCc2ccc(F)c(F)c2)o1` [Compound 145] was 6290 nM.
Regarding `Cc1nnc(-c2c(OCc3ccc(F)cc3)nc(CC(C)C)c(C(N)=O)c2-c2ccc(C(=O)NCc3ccc(F)c(F)c3)s2)o1` [Compound 146, 4-[5-[(3,4-difluorophenyl)methylcarbamoyl]-2-thienyl]-6-[(4-fluorophenyl)methoxy]-2-isobutyl-5-(5-methyl-1,3,4-oxadiazol-2-yl)pyridine-3-carboxamide], the EC50 was 973 nM.
Take `CC(C)Cc1nc(CCc2ccc(F)cc2)c(-c2nnc(C(C)C)o2)c(-c2ccc(C(=O)NCc3ccc(F)c(F)c3)s2)c1C(N)=O` [Compound 147, N-(3,4-difluorophenyl)methyl-5-{5-carbamoyl-2-[2-(p-fluorophenyl)ethyl]-6-isobutyl-3-(5-isopropyl-1,3,4-oxadiazol-2-yl)-4-pyridyl}-2-thenamide]: the EC50 stood at 2.3 nM.
With `CC(C)Cc1nc(CCc2ccc(F)cc2)c(-c2nnc(C(F)(F)F)o2)c(-c2ccc(C(=O)NCc3ccc(F)c(F)c3)s2)c1C(N)=O` [Compound 148, N-(3,4-difluorophenyl)methyl-5-{5-carbamoyl-2-[2-(p-fluorophenyl)ethyl]-6-isobutyl-3-[5-(trifluoromethyl)-1,3,4-oxadiazol-2-yl]-4-pyridyl}-2-thenamide] the figure was 208 nM.
For the compound `Cc1nnc(-c2c(CCc3ccc(F)cc3)nc(CC(C)C)c(C(N)=O)c2-c2ccc(C(=O)NCc3ccc(F)c(F)c3)s2)s1` [Compound 149, N-(3,4-difluorophenyl)methyl-5-{5-carbamoyl-2-[2-(p-fluorophenyl)ethyl]-6-isobutyl-3-(5-methyl-1,3,4-thiadiazol-2-yl)-4-pyridyl}-2-thenamide], the EC50 was found to be 19.1 nM.

What is called EC50 is the concentration needed to bring the measured effect to its halfway point.
